From ChEMBL document CHEMBL4011618, “Discovery of Potent, Selective Stem Cell Factor Receptor/Platelet Derived Growth Factor Receptor Alpha (c-KIT/PDGFRα) Dual Inhibitor for the Treatment of Imatinib-Resistant Gastrointestinal Stromal Tumors (GISTs)” (J Med Chem, 2017)

Assays:
[1] = tested on: Mast/stem cell growth factor receptor Kit (Homo sapiens), P10721 [T670I]
Description: Inhibition of TEL-fused cKIT T670I mutant (unknown origin) expressed in mouse BAF3 cells assessed as cell growth inhibition after 72 hrs by cell titer-glo assay

[2] = Half life in Sprague-Dawley rat at 25 mg/kg, ip up to 24 hrs post dose by LC/MS/MS analysis; type: ADME, organism-based; conditions: in vivo
[3] = AUC (0 to infinity) in Sprague-Dawley rat at 2 mg/kg, iv up to 24 hrs post dose by LC/MS/MS analysis; type: ADME, organism-based; parameters: dose 2 mg/kg, route intravenous, time infinity; conditions: in vivo
[4] = tested on: Platelet-derived growth factor receptor alpha (Homo sapiens), P16234 [T674I]
Description: Inhibition of TEL-fused PDGFRalpha T674I mutant (unknown origin) expressed in mouse BAF3 cells assessed as cell growth inhibition after 72 hrs by cell titer-glo assay

[5] = Tmax in Sprague-Dawley rat at 25 mg/kg, ip up to 24 hrs post dose by LC/MS/MS analysis; type: ADME, organism-based; conditions: in vivo
[6] = tested on: Mast/stem cell growth factor receptor Kit (Homo sapiens), P10721 [V559D]
[7] = MRT (0 to t) in Sprague-Dawley rat at 100 mg/kg, ip up to 24 hrs post dose by LC/MS/MS analysis; type: ADME, organism-based; conditions: in vivo
[8] = Antiproliferative activity against mouse BAF3 cells assessed as cell growth inhibition after 72 hrs by cell titer-glo assay; type: cell-based
[9] = MRT (0 to infinity) in Sprague-Dawley rat at 25 mg/kg, ip up to 24 hrs post dose by LC/MS/MS analysis; type: ADME, organism-based; conditions: in vivo
[10] = MRT (0 to t) in Sprague-Dawley rat at 2 mg/kg, iv up to 24 hrs post dose by LC/MS/MS analysis; type: ADME, organism-based; conditions: in vivo
GISTT1 [11] = experiment: Antiproliferative activity against human GISTT1 cells assessed as cell growth inhibition after 72 hrs by cell titer-glo assay; type: functional; conditions: GISTT1, 72 h
Mus musculus = experiment: Toxicity in nu/nu mouse allografted with mouse BAF3 cells harboring TEL-cKIT-T670I mutant assessed as change in body weight at 25 to 100 mg/kg, ip administered daily for 11 days relative to control; type: organism-based; conditions: in vivo, 264 h
[12] = Cmax in Sprague-Dawley rat at 100 mg/kg, ip up to 24 hrs post dose by LC/MS/MS analysis; type: ADME, organism-based; parameters: dose 100 mg/kg, route intraperitoneal; conditions: in vivo
GIST882 = experiment: Antiproliferative activity against human GIST882 cells assessed as cell growth inhibition after 72 hrs by cell titer-glo assay; type: functional; conditions: GIST882, 72 h
[13] = tested on: Mast/stem cell growth factor receptor Kit (Homo sapiens), P10721 [D816V]
Description: Inhibition of TEL-fused cKIT D816V mutant (unknown origin) expressed in mouse BAF3 cells assessed as cell growth inhibition after 72 hrs by cell titer-glo assay

[14] = target: Tyrosine-protein kinase ABL2 (Homo sapiens) (UniProt P42684); experiment: Inhibition of human wild type ABL2 (248 to 542 residues) expressed in bacterial expression system assessed as activity remaining at 1 uM by KINOMEscan assay relative to control
[15] = Antiproliferative activity against CHL cells assessed as cell growth inhibition after 72 hrs by cell titer-glo assay; type: cell-based, Cricetulus griseus; conditions: chinese hamster
[16] = tested on: Mast/stem cell growth factor receptor Kit (Homo sapiens), P10721 [C674S]
Description: Inhibition of TEL-fused cKIT C674S mutant (unknown origin) expressed in mouse BAF3 cells assessed as cell growth inhibition after 72 hrs by cell titer-glo assay

[17] = Volume of distribution at steady state in Sprague-Dawley rat at 2 mg/kg, iv up to 24 hrs post dose by LC/MS/MS analysis; type: ADME, organism-based; conditions: in vivo, read-out: Vdss
[18] = target: Macrophage colony-stimulating factor 1 receptor (Homo sapiens, UniProt P07333); experiment: Inhibition of human full length His-tagged CSF1R expressed in baculovirus by Z'Lyte assay
[19] = target: Voltage-gated inwardly rectifying potassium channel KCNH2 (Homo sapiens, UniProt Q12809); experiment: Inhibition of human ERG expressed in CHO cells by whole cell patch clamp assay; type: cell-based
GISTT1 [20] = experiment: Antitumor activity against human GISTT1 cells xenografted in nu/nu mouse assessed as tumor growth inhibition at 100 mg/kg, ip administered daily for 28 days relative to control; type: functional; conditions: 672 h, read-out: TGI
[21] = tested on: Mast/stem cell growth factor receptor Kit (Homo sapiens), P10721 [A829P]
Description: Inhibition of TEL-fused cKIT A829P mutant (unknown origin) expressed in mouse BAF3 cells assessed as cell growth inhibition after 72 hrs by cell titer-glo assay

[22] = target: Platelet-derived growth factor receptor beta (Homo sapiens, UniProt P09619); experiment: Inhibition of human His-tagged PDGFRbeta (558 to 1106 residues) expressed in baculovirus by ELISA
[23] = Antiproliferative activity against human GIST48B cells assessed as cell growth inhibition after 72 hrs by cell titer-glo assay; type: functional

Sequence of Platelet-derived growth factor receptor alpha (Homo sapiens), P16234 [T674I] (P16234 whole entry T674I): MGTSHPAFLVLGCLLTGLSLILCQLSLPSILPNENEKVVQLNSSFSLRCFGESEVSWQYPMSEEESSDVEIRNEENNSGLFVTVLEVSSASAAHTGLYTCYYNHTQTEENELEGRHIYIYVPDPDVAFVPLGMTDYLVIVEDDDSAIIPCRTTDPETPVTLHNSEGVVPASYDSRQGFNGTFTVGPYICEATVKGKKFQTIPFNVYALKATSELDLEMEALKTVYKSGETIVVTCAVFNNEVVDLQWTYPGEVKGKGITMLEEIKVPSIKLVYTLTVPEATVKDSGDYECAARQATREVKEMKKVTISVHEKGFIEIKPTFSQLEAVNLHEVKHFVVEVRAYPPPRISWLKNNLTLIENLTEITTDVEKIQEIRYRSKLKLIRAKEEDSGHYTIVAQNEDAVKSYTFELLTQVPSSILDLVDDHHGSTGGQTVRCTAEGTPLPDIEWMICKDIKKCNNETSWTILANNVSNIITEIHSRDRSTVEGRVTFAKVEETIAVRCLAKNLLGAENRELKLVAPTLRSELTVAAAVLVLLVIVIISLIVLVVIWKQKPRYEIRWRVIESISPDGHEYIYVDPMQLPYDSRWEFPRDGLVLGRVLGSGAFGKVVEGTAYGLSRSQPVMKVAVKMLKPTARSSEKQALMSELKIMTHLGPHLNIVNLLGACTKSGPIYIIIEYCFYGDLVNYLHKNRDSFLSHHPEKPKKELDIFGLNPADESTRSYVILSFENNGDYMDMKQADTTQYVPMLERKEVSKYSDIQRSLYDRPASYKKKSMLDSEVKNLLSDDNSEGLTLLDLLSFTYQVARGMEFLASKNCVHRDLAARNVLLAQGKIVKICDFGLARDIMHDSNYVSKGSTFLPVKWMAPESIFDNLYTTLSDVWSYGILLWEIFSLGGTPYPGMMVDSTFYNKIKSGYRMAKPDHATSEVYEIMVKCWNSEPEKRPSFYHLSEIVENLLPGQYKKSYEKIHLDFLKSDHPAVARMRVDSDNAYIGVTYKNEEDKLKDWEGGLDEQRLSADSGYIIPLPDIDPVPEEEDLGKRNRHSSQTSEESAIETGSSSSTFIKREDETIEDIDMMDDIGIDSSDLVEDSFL
Sequence of Mast/stem cell growth factor receptor Kit (Homo sapiens), P10721 [D816V] (P10721 whole entry D816V, the tested form may be a part): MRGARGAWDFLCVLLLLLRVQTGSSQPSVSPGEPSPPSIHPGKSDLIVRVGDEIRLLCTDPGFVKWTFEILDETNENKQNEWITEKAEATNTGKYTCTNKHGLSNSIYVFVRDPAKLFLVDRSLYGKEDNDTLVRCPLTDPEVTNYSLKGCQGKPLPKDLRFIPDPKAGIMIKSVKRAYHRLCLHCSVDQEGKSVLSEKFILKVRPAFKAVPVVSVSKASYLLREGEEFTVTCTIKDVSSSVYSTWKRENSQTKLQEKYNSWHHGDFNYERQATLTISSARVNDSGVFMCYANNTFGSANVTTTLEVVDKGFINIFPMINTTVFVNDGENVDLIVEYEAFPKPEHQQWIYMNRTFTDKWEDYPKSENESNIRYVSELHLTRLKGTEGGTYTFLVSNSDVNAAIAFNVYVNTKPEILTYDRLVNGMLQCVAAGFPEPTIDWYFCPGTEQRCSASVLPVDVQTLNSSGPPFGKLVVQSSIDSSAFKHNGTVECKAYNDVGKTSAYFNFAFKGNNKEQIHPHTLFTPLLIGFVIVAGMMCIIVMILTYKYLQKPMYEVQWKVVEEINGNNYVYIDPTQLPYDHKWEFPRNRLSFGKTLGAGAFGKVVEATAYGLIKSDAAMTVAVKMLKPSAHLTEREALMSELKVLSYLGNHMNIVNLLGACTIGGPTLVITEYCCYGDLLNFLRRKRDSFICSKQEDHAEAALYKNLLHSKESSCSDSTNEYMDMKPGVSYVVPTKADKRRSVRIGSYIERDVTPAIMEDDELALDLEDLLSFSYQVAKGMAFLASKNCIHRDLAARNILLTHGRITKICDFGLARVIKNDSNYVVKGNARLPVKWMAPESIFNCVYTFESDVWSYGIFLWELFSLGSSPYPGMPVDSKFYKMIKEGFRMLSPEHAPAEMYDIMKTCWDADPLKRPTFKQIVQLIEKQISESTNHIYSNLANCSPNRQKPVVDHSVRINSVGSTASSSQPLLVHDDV
Sequence of Mast/stem cell growth factor receptor Kit (Homo sapiens), P10721 [A829P] (P10721 whole entry A829P, the tested form may be a part): as the sequence (P10721 whole entry D816V, the tested form may be a part) above, with V816D, A829P counted along it
Sequence of Mast/stem cell growth factor receptor Kit (Homo sapiens), P10721 [C674S] (P10721 whole entry C674S): as the sequence (P10721 whole entry D816V, the tested form may be a part) above, with C674S, V816D counted along it
Sequence of Macrophage colony-stimulating factor 1 receptor (P07333 whole entry): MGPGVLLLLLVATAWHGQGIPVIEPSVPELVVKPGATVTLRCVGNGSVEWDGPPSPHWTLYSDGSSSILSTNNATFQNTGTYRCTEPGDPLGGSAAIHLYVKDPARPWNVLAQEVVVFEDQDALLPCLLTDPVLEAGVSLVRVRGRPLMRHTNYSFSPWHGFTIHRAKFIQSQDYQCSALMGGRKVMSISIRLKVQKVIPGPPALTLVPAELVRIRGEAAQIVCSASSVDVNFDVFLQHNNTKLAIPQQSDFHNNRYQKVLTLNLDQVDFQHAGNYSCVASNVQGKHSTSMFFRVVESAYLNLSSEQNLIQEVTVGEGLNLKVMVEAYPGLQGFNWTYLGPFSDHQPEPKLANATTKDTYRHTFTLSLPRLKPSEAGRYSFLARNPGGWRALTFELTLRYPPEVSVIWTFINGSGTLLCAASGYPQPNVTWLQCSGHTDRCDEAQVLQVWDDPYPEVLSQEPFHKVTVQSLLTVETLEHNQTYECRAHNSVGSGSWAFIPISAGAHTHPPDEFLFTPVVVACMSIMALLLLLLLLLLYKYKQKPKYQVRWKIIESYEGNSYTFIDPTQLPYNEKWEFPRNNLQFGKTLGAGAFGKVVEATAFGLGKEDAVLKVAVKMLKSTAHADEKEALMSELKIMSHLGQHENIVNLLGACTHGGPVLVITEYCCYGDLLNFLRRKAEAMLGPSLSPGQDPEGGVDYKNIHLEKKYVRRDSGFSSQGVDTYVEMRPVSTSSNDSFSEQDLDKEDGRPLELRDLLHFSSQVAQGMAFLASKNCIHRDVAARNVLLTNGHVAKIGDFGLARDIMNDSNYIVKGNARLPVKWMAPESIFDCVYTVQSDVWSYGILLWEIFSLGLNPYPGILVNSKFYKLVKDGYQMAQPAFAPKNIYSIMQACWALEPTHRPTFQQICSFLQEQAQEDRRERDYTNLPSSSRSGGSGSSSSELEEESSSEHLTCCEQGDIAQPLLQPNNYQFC
Sequence of Mast/stem cell growth factor receptor Kit (Homo sapiens), P10721 [T670I] (P10721 whole entry T670I): as the sequence (P10721 whole entry D816V, the tested form may be a part) above, with T670I, V816D counted along it
Sequence of Platelet-derived growth factor receptor beta (P09619 whole entry, the tested form may be a part): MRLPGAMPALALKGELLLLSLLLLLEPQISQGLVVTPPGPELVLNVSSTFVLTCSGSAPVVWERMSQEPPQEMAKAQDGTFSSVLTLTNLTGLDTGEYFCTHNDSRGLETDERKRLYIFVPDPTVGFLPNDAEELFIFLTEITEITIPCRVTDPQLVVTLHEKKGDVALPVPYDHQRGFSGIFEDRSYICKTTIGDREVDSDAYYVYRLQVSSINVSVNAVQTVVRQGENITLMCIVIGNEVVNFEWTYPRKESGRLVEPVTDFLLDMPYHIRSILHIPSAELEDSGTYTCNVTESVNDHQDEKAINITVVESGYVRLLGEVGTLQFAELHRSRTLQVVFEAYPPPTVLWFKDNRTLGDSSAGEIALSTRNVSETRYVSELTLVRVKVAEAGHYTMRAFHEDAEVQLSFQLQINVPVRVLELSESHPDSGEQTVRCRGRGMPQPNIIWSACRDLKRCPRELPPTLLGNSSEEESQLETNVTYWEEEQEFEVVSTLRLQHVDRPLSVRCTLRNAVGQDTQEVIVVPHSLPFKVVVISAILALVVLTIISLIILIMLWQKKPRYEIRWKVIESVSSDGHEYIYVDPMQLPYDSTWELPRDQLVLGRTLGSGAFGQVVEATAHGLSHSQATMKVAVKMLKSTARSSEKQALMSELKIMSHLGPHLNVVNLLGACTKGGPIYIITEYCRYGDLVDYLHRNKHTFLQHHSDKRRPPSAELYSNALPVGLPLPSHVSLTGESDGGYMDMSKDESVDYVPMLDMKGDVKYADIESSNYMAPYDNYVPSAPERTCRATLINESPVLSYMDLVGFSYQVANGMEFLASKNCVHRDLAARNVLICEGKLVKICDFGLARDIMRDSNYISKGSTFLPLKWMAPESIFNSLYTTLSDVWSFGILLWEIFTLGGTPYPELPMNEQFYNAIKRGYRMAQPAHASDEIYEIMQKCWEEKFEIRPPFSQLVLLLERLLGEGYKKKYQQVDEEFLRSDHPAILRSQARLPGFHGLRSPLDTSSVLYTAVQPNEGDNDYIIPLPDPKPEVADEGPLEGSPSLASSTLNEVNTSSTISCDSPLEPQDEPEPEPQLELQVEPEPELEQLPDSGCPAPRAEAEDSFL
Sequence of Mast/stem cell growth factor receptor Kit (Homo sapiens), P10721 [V559D] (P10721 whole entry V559D): as the sequence (P10721 whole entry D816V, the tested form may be a part) above, with V559D, V816D counted along it

Cc1cc(NC(=O)Nc2ccc(-c3ccnc4[nH]nc(C)c34)cc2)ccc1N1CCOCC1
GI50 [1]: 39.2 nM
half-life [2]: 5.09 h
AUC(0-inf) [3]: 2250 ng·h/mL
GI50 [4]: 135 nM
Tmax [5]: 4 h
GI50 [6]: 96.5 nM
MRT last at 24 h [7]: 7.99 h
GI50 at 72 h [8]: 4030 nM
MRT inf [9]: 6.48 h
MRT last at 24 h [10]: 1.13 h
GI50 (GISTT1 [11]): < 3 nM
Activity (Mus musculus): Non-Toxic
Cmax [12]: 656 ng/mL
GI50 (GIST882): < 3 nM
GI50 [13]: > 10000 nM
Activity [14]: > 35%
GI50 at 72 h [15]: 7040 nM
GI50 [16]: 10.5 nM
Vd [17]: 0.97 L/kg
IC50 [18]: 160 nM
IC50 [19]: > 40000 nM
inhibition in vivo at 100 mg/kg (GISTT1 [20]): 81.5%
GI50 [21]: 11.6 nM
IC50 [22]: < 1 nM
GI50 [23]: > 10000 nM
